Columns and labels:
[1] = target: BChE (Equus caballus, UniProt P81908); assay: Ellman's assay, BChE inhibition; type: biochemical
[2] = target: AChE (Electrophorus electricus, UniProt O42275); assay: Ellman's assay, AChE (type VI-S) inhibition; type: biochemical
AChE, sequence (O42275 24-633): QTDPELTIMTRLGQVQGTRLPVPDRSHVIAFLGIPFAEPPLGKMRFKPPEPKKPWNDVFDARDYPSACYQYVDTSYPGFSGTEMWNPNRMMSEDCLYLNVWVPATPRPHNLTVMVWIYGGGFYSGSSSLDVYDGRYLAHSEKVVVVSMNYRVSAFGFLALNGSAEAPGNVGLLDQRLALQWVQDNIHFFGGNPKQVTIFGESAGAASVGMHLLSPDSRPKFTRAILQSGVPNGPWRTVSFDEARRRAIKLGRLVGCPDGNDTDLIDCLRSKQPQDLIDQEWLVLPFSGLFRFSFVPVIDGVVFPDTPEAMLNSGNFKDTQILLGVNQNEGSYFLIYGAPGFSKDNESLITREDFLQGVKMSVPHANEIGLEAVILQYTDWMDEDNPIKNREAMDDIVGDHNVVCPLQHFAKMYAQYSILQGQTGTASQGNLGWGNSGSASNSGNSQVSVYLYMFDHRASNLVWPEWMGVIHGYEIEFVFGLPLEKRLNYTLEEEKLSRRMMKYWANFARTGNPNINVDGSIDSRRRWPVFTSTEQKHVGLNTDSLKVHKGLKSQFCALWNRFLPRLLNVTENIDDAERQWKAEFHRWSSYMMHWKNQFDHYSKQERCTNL

BChE, sequence (P81908 whole entry): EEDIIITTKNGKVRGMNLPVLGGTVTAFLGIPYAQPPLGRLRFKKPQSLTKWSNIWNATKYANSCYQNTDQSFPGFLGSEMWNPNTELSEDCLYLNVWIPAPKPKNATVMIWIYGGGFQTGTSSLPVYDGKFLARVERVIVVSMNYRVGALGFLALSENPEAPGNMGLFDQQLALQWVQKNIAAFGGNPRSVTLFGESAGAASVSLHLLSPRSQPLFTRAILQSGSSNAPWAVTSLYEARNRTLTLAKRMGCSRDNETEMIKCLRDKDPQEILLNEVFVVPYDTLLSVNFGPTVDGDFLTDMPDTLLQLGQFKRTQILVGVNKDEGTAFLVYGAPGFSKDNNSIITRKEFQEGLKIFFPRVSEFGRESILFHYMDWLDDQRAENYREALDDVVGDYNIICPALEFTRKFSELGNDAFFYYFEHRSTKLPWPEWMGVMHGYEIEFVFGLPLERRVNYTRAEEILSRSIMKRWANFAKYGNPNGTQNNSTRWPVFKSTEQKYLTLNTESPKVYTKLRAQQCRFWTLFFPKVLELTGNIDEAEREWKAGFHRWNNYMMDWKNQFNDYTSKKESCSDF

C/C=C\c1ccc(O)c(OC)c1 [isoeugenol]
IC50 [1]: 1690 µM
IC50 [2]: 2620 µM
